From patent US20250304563A1, “ACTIVATORS OF EFFECTOR T CELLS” (Orum Therapeutics, Inc., priority 2022, published 2025) come the findings set out here.

By IC50 is commonly meant the midpoint of a concentration-inhibition curve. Low readings indicate inhibition by little substance, high ones a need for much substance.

Assay [1] relates to Human primary T cells. The experiment in a line: T cell activation: secreted IL-2. Particulars: 48 hours, fold over background normalized to Compound 141A; for IL-2 1 nM: 1 nM compound; for IL-2 10 nM: 10 nM compound; for IL-2 100 nM: 100 nM compound. Format: cell-based. The gist of the method:
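Negatively selected human primary T cells on plate-bound anti-CD3 (OKT3) in serum-free medium, treated 48 h at 37° C. with serial compound dilutions in duplicate. Secreted IL-2 by bead-based cytometric assay, expressed as fold over anti-CD3/CD28 background normalized to a reference compound, then binned into ranges.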

The subject of assay [2] is Human primary T cells. The experiment in a line: T cell activation: CD69 surface expression by flow cytometry. Particulars: fold over anti-CD3 stimulated background normalized to Compound 141A; for CD69 10 nM: 10 nM compound; for CD69 100 nM: 100 nM compound. Format: cell-based. The method in brief:
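Negatively selected human primary T cells (1×10^5/well, XVivo-15) were captured on plates coated with 10 μg/mL anti-CD3 (OKT3). They were exposed to serially diluted compounds in duplicate for 48 h at 37° C. CD69 was read by flow cytometry as fold over anti-CD3-only background, normalized to Compound 141A and binned into ranges.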
In general terms: A flow cytometer gives signals particle by particle.

Assay [3] has as its target Cbl-b (36-427 aa truncated form, N-terminus Avi-tag) (Homo sapiens (Human), UniProt Q13191). The experiment in a line: Cbl-b binding: TR-FRET displacement of BODIPY-FL probe. The gist of the method:
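Avi-tagged Cbl-b 36-427 preincubated 1 h at RT with streptavidin-terbium in HEPES pH 7.5/NaCl/Triton/BSA/TCEP buffer, then 1 uM BODIPY-FL inhibitor probe plus compound added for 1 h. Probe displacement read by TR-FRET; IC50 fitted.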
Background: TR-FRET usually uses a lanthanide donor and a delayed reading to cut background.

The test system of assay [4] is Human primary T cells. The experiment in a line: T cell activation: secreted IFN-y. Format: cell-based. Conditions: 48 hours, fold over background normalized to Compound 141A; for IFN-y 1 nM: 1 nM compound; for IFN-y 10 nM: 10 nM compound; for IFN-y 100 nM: 100 nM compound. The gist of the method: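 Negatively selected primary human T cells (1×10^5/well, serum-free XVivo-15) on plates coated with 10 μg/mL anti-CD3 were exposed to serial compound dilutions for 48 h at 37 °C. Secreted IFN-γ was measured by cytometric bead array and expressed as fold over anti-CD3/CD28 background, normalized to a reference compound and binned into ranges A–D.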

Chain of Cbl-b (36-427 aa truncated form, N-terminus Avi-tag) (Q13191 36-427): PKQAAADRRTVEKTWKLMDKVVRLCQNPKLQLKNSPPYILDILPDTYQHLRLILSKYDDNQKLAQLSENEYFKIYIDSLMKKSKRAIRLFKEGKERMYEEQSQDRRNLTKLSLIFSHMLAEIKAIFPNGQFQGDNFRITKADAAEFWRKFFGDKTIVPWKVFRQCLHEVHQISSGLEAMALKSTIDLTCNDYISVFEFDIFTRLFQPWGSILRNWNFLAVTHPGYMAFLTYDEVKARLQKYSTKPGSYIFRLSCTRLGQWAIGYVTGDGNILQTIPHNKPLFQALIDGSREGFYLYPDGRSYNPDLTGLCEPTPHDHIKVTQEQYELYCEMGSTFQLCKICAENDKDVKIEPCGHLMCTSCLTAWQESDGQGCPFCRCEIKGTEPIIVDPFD

As for `C=CC(=O)N1CCN(c2cc(C3(Cc4nncn4C)COC3)cc(N3Cc4c(cc(CN5CCC[C@H](C)C5)cc4C(F)(F)F)C3=O)n2)CC1` [Compound 121, (S)-2-(6-(4-acryloylpiperazin-1-yl)-4-(3-((4-methyl-4H-1,2,4-triazol-3-yl)methyl)oxetan-3-yl)pyridin-2-yl)-6-((3-methylpiperidin-1-yl)methyl)-4-(trifluoromethyl)isoindolin-1-one], in assay [1], the “IL-2 1 nM” value is “C (values between 0.10 and 0.30: range “C”)”; the “IL-2 10 nM” value is “C (values between 0.10 and 0.30: range “C”)”; the “IL-2 100 nM” value was “B (values between 0.31 and 0.79: range “B”)”. Further, in assay [2], the “CD69 10 nM” value was “C (values between 0.30 and 0.60: range “C”)”; the “CD69 100 nM” value is “A (values between 0.81 and 1.10: range “A”)”. The compound further registered a half-inhibitory concentration (IC50) in assay [3] of 20 to 100 nM. In assay [4], the “IFN-y 1 nM” value is “C (values between 0.10 and 0.30: range “C”)”; the “IFN-y 10 nM” value was “C (values between 0.10 and 0.30: range “C”)”; the “IFN-y 100 nM” value was “B (values between 0.31 and 1.00: range “B;”)”.

For `C[C@H]1CCCN(Cc2cc3c(c(C(F)(F)F)c2)CN(c2cc(C4(Cc5nncn5C)COC4)cc(OCCCC#N)n2)C3=O)C1.O=C(O)C(F)(F)F` [Compound 122, 4-[(4-{3-[(4-methyl-1,2,4-triazol-3-yl)methyl]oxetan-3-yl}-6-(6-{[(3S)-3-methylpiperidin-1-yl]methyl}-1-oxo-4-(trifluoromethyl)-3H-isoindol-2-yl)pyridin-2-yl)oxy]butanenitrile; trifluoroacetic acid], in assay [1], the “IL-2 1 nM” value is “C (values between 0.10 and 0.30: range “C”)”; the “IL-2 10 nM” value is “B (values between 0.31 and 0.79: range “B”)”; the “IL-2 100 nM” value is “B (values between 0.31 and 0.79: range “B”)”. Moreover, in assay [2], the “CD69 10 nM” value is “B (values between 0.61 and 0.80: range “B;”)”; the “CD69 100 nM” value was “A (values between 0.81 and 1.10: range “A”)”. The same compound returned a 50% inhibitory concentration (IC50) in assay [3] of 1 to 5 nM. Besides, in assay [4], the “IFN-y 1 nM” value was “C (values between 0.10 and 0.30: range “C”)”; the “IFN-y 10 nM” value was “B (values between 0.31 and 1.00: range “B;”)”; the “IFN-y 100 nM” value is “B (values between 0.31 and 1.00: range “B;”)”.

In the case of `CC(C)C(C#N)Oc1cc(C2(Cc3nncn3C)COC2)cc(N2Cc3c(cc(CN4CCC[C@H](C)C4)cc3C(F)(F)F)C2=O)n1.O=CO` (stereo partly drawn) [Compound 123, 3-methyl-2-[(4-{3-[(4-methyl-1,2,4-triazol-3-yl)methyl]oxetan-3-yl}-6-(6-{[(3S)-3-methylpiperidin-1-yl]methyl}-1-oxo-4-(trifluoromethyl)-3H-isoindol-2-yl)pyridin-2-yl)oxy]butanenitrile; formic acid], in assay [1], the “IL-2 1 nM” value was “C (values between 0.10 and 0.30: range “C”)”; the “IL-2 10 nM” value is “C (values between 0.10 and 0.30: range “C”)”; the “IL-2 100 nM” value was “B (values between 0.31 and 0.79: range “B”)”. Moreover, in assay [2], the “CD69 10 nM” value is “C (values between 0.30 and 0.60: range “C”)”; the “CD69 100 nM” value was “B (values between 0.61 and 0.80: range “B;”)”. This compound registered a 50% inhibitory concentration (IC50) in assay [3] of 1 to 5 nM. Moreover, in assay [4], the “IFN-y 1 nM” value was “C (values between 0.10 and 0.30: range “C”)”; the “IFN-y 10 nM” value is “C (values between 0.10 and 0.30: range “C”)”; the “IFN-y 100 nM” value was “B (values between 0.31 and 1.00: range “B;”)”.

Turning to `C[C@H]1CCCN(Cc2cc3c(c(C(F)(F)F)c2)CN(c2cc(C4(Cc5nncn5C)COC4)cc(SCCC(=O)O)n2)C3=O)C1` [Compound 124, 3-[(4-{3-[(4-methyl-1,2,4-triazol-3-yl)methyl]oxetan-3-yl}-6-(6-{[(3S)-3-methylpiperidin-1-yl]methyl}-1-oxo-4-(trifluoromethyl)-3H-isoindol-2-yl)pyridin-2-yl)sulfanyl]propanoic acid], in assay [1], the “IL-2 1 nM” value was “C (values between 0.10 and 0.30: range “C”)”; the “IL-2 10 nM” value is “C (values between 0.10 and 0.30: range “C”)”; the “IL-2 100 nM” value was “C (values between 0.10 and 0.30: range “C”)”. In addition, in assay [2], the “CD69 10 nM” value is “C (values between 0.30 and 0.60: range “C”)”; the “CD69 100 nM” value was “C (values between 0.30 and 0.60: range “C”)”. The IC50 in assay [3] lay within 100 to 1000 nM. In addition, in assay [4], the “IFN-y 1 nM” value is “C (values between 0.10 and 0.30: range “C”)”; the “IFN-y 10 nM” value is “C (values between 0.10 and 0.30: range “C”)”; the “IFN-y 100 nM” value is “C (values between 0.10 and 0.30: range “C”)”.

For the compound `C=CC(=O)NCCNc1cc(C2(Cc3nncn3C)COC2)cc(N2Cc3c(cc(CN4CCC[C@H](C)C4)cc3C(F)(F)F)C2=O)n1` [Compound 125, (S)-N-(2-((4-(3-((4-methyl-4H-1,2,4-triazol-3-yl)methyl)oxetan-3-yl)-6-(6-((3-methylpiperidin-1-yl)methyl)-1-oxo-4-(trifluoromethyl)isoindolin-2-yl)pyridin-2-yl)amino)ethyl)acrylamide], in assay [1], the “IL-2 1 nM” value is “C (values between 0.10 and 0.30: range “C”)”; the “IL-2 10 nM” value is “C (values between 0.10 and 0.30: range “C”)”; the “IL-2 100 nM” value is “B (values between 0.31 and 0.79: range “B”)”. For the same compound, in assay [2], the “CD69 10 nM” value was “C (values between 0.30 and 0.60: range “C”)”; the “CD69 100 nM” value is “A (values between 0.81 and 1.10: range “A”)”. This compound also displayed an IC50 in assay [3] of 5.01 to 20 nM. In assay [4], the “IFN-y 1 nM” value was “C (values between 0.10 and 0.30: range “C”)”; the “IFN-y 10 nM” value was “C (values between 0.10 and 0.30: range “C”)”; the “IFN-y 100 nM” value was “B (values between 0.31 and 1.00: range “B;”)”.

As for `CCSc1cc(C2(Cc3nncn3C)COC2)cc(N2Cc3c(NC)cc(CN4CCC[C@H](C)C4)cc3C2=O)n1.O=CO` [Compound 130, 2-[6-(ethylsulfanyl)-4-{3-[(4-methyl-1,2,4-triazol-3-yl)methyl]oxetan-3-yl}pyridin-2-yl]-4-(methylamino)-6-{[(3S)-3-methylpiperidin-1-yl]methyl}-3H-isoindol-1-one; formic acid], in assay [1], the “IL-2 1 nM” value was “C (values between 0.10 and 0.30: range “C”)”; the “IL-2 10 nM” value was “C (values between 0.10 and 0.30: range “C”)”; the “IL-2 100 nM” value is “B (values between 0.31 and 0.79: range “B”)”. For the same compound, in assay [2], the “CD69 10 nM” value is “C (values between 0.30 and 0.60: range “C”)”; the “CD69 100 nM” value is “B (values between 0.61 and 0.80: range “B;”)”. For the same compound, the 50% inhibitory concentration (IC50) in assay [3] fell in the range of 5.01 to 20 nM. In assay [4], the “IFN-y 1 nM” value was “C (values between 0.10 and 0.30: range “C”)”; the “IFN-y 10 nM” value was “C (values between 0.10 and 0.30: range “C”)”; the “IFN-y 100 nM” value is “B (values between 0.31 and 1.00: range “B;”)”.

For the compound `C#CCCS(=O)(=O)N1CCN(c2cc(C3(Cc4nncn4C)COC3)cc(N3Cc4c(cc(CN5CCC[C@H](C)C5)cc4C(F)(F)F)C3=O)n2)CC1` [Compound 134, (S)-2-(6-(4-(but-3-yn-1-ylsulfonyl)piperazin-1-yl)-4-(3-((4-methyl-4H-1,2,4-triazol-3-yl)methyl)oxetan-3-yl)pyridin-2-yl)-6-((3-methylpiperidin-1-yl)methyl)-4-(trifluoromethyl)isoindolin-1-one], in assay [1], the “IL-2 1 nM” value is “C (values between 0.10 and 0.30: range “C”)”; the “IL-2 10 nM” value is “B (values between 0.31 and 0.79: range “B”)”; the “IL-2 100 nM” value was “B (values between 0.31 and 0.79: range “B”)”. In assay [2], the “CD69 10 nM” value is “B (values between 0.61 and 0.80: range “B;”)”; the “CD69 100 nM” value was “A (values between 0.81 and 1.10: range “A”)”. Also, the IC50 in assay [3] was in the range of 5.01 to 20 nM. In assay [4], the “IFN-y 1 nM” value is “B (values between 0.31 and 1.00: range “B;”)”; the “IFN-y 10 nM” value is “B (values between 0.31 and 1.00: range “B;”)”; the “IFN-y 100 nM” value is “B (values between 0.31 and 1.00: range “B;”)”.

Regarding `CCC(CC#N)Nc1cc(C2(Cc3nncn3C)COC2)cc(N2Cc3c(cc(CN4CCC[C@H](C)C4)cc3C(F)(F)F)C2=O)n1.O=C(O)C(F)(F)F` (stereo partly drawn) [Compound 135, 3-((4-(3-((4-methyl-4H-1,2,4-triazol-3-yl)methyl)oxetan-3-yl)-6-(6-(((S)-3-methylpiperidin-1-yl)methyl)-1-oxo-4-(trifluoromethyl)isoindolin-2-yl)pyridin-2-yl)amino)pentanenitrile; trifluoroacetic acid], in assay [1], the “IL-2 1 nM” value was “C (values between 0.10 and 0.30: range “C”)”; the “IL-2 10 nM” value is “B (values between 0.31 and 0.79: range “B”)”; the “IL-2 100 nM” value is “B (values between 0.31 and 0.79: range “B”)”. In addition, in assay [2], the “CD69 10 nM” value is “B (values between 0.61 and 0.80: range “B;”)”; the “CD69 100 nM” value is “A (values between 0.81 and 1.10: range “A”)”. Moreover, the IC50 in assay [3] is 5.01 to 20 nM. In assay [4], the “IFN-y 1 nM” value is “C (values between 0.10 and 0.30: range “C”)”; the “IFN-y 10 nM” value is “B (values between 0.31 and 1.00: range “B;”)”; the “IFN-y 100 nM” value was “B (values between 0.31 and 1.00: range “B;”)”.
